# The supplement of paper PMC10307832
# Assays:
# Assay in all cases: relative viability (nuclei count vs DMSO), 5 days (fraction); higher = more cells survive
# [1] = tested on: NCI-H727
# Procedure, shortened: (§1)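 Nuclei were stained with Hoechst during a one-step fixation (final 0.05% Triton X-100, 1% formaldehyde, 1 ug/ml Hoechst) carried out 5 days after dosing, then counted on 4× images. The cells, lung cancer lines in 1536-well plates, had been dosed by pin tool the day after seeding with one drug alone or a fixed anchor-drug dose plus five library-drug doses (not always all listed) in √10 steps. Relative viability is the nuclei count in treated wells divided by that in vehicle wells, and each value is the median of duplicate plates.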
# [2] = tested on: NCI-H522
# Procedure, shortened: as §1
# [3] = tested on: NCI-H647
# Procedure, shortened: as §1
# [4] = tested on: EPLC-272H
# Procedure, shortened: as §1
# [5] = tested on: NCI-H838
# Procedure, shortened: as §1
# [6] = tested on: COR-L23
# Procedure, shortened: as §1
# [7] = tested on: NCI-H1792
# Procedure, shortened: as §1
# [8] = tested on: EKVX
# Procedure, shortened: as §1
# [9] = tested on: NCI-H661
# Procedure, shortened: as §1
# [10] = tested on: NCI-H1651
# Procedure, shortened: as §1
# [11] = tested on: NCI-H2087
# Procedure, shortened: as §1
# [12] = tested on: NCI-H1437
# Procedure, shortened: as §1
# [13] = tested on: NCI-H1650
# Procedure, shortened: as §1
smiles,measurement,setting,value
CCCCCCCCCCCC1=C(O)C(=O)C=C(O)C1=O [Embelin] + CCNC(=O)c1noc(-c2cc(C(C)C)c(O)cc2O)c1-c1ccc(CN2CCOCC2)cc1 [Luminespib] (partner 0.01 µM),relative viability,[1]; first compound 0.08 µM,0.317
same,relative viability,[1]; first compound 0.8 µM,0.417
same,relative viability,[1]; first compound 2.53 µM,0.304
same,relative viability,[1]; first compound 8 µM,0.386
same,relative viability,[2]; first compound 0.08 µM,1.26
same,relative viability,[2]; first compound 0.8 µM,1.2
same,relative viability,[2]; first compound 2.53 µM,1.34
same,relative viability,[2]; first compound 8 µM,1.12
same,relative viability,[3]; first compound 0.08 µM,0.233
same,relative viability,[3]; first compound 0.8 µM,0.326
same,relative viability,[3]; first compound 2.53 µM,0.138
same,relative viability,[3]; first compound 8 µM,0.132
same,relative viability,[4]; first compound 0.08 µM,0.69
same,relative viability,[4]; first compound 0.8 µM,0.222
same,relative viability,[4]; first compound 2.53 µM,0.253
same,relative viability,[4]; first compound 8 µM,0.266
same,relative viability,[5]; first compound 0.08 µM,0.292
same,relative viability,[5]; first compound 0.8 µM,0.449
same,relative viability,[5]; first compound 2.53 µM,0.362
same,relative viability,[5]; first compound 8 µM,0.244
same,relative viability,[6]; first compound 0.08 µM,0.773
same,relative viability,[6]; first compound 0.8 µM,0.73
same,relative viability,[6]; first compound 2.53 µM,0.911
same,relative viability,[6]; first compound 8 µM,0.763
same,relative viability,[7]; first compound 0.08 µM,0.363
same,relative viability,[7]; first compound 0.8 µM,0.515
same,relative viability,[7]; first compound 2.53 µM,0.46
same,relative viability,[7]; first compound 8 µM,0.516
same,relative viability,[8]; first compound 0.08 µM,0.864
same,relative viability,[8]; first compound 0.8 µM,0.888
same,relative viability,[8]; first compound 2.53 µM,0.876
same,relative viability,[8]; first compound 8 µM,0.966
same,relative viability,[9]; first compound 0.08 µM,0.924
same,relative viability,[9]; first compound 0.8 µM,1
same,relative viability,[9]; first compound 2.53 µM,0.897
same,relative viability,[9]; first compound 8 µM,0.85
same,relative viability,[10]; first compound 0.08 µM,0.953
same,relative viability,[10]; first compound 0.8 µM,0.944
same,relative viability,[10]; first compound 2.53 µM,0.977
same,relative viability,[10]; first compound 8 µM,0.886
same,relative viability,[11]; first compound 0.08 µM,0.162
same,relative viability,[11]; first compound 0.8 µM,0.186
same,relative viability,[11]; first compound 2.53 µM,0.141
same,relative viability,[11]; first compound 8 µM,0.172
same,relative viability,[12]; first compound 0.08 µM,1.17
same,relative viability,[12]; first compound 0.8 µM,1.17
same,relative viability,[12]; first compound 2.53 µM,1.08
same,relative viability,[12]; first compound 8 µM,0.622
same,relative viability,[13]; first compound 0.08 µM,0.16
same,relative viability,[13]; first compound 0.8 µM,0.196
